Here are results for one molecule from US8633166B2, “Methicillin-resistant Staphylococcus aureus active metabolites” (priority 2009, dated 2014).

The subject of this assay is Methicillin-resistant Staphylococcus aureus. Briefly: In vivo MRSA assay, thigh infection in a murine model. Set-up: species or system Mice (CD-1). Conditions: for number of MRSA recovered from muscle tissue: 48 hours, neutropenic mice. How it is done: The in vivo antimicrobial activity for the isolated glycosides is represented in FIGS. 2A and 2B. Mice (CD-1) were purchased from Harlan Inc. and acclimatized up to 5 days before use. Food and water were available ad libitum throughout the study. They were rendered neutropenic by two injections of cyclophosphamide (100 mg/kg) given intraperitoneally, one and four days before infection. A volume of 50 uL suspension of Methicillin-resistant Staphylococcus aureus (1.5×10^6 live organisms) was injected intramuscularly (1M) into each of the two rear thighs. Each thigh was considered as an individual data point (total of 4 data points for each treatment). These mice were randomly distributed into the control or treatment groups (n=2/group).
Treatment with the test compound (1) was initiated via the intraperitoneal route 2 hrs after thigh inoculation. Control animals were concurrently administered saline (mock treatment) or vancomycin in the same volume as those receiving compound (1). All animals were sacrificed after 48 hours by CO2 inhalation. Immediately following sacrifice, thigh tissue was collected from the animals, weighed, and homogenized in 5.0 mL of saline. Thigh muscle homogenate was then processed for microbiological assay to determine the number of MRSA cfu per gram of muscle tissue.

For `C[C@@H]1O[C@@H](Oc2c(-c3ccc(O)cc3)oc3cc(O)cc(O)c3c2=O)[C@H](OC(=O)/C=C/c2ccc(O)cc2)[C@H](OC(=O)/C=C/c2ccc(O)cc2)[C@H]1O` [Compound 1, kaempferol 3-O-α-L-(2″,3″-di-E-p-coumaroyl)rhamnoside], the “reduction compared to vehicle control” value is, setting by setting: (3 mg/kg) 67%; (15 mg/kg) 78%. For the same molecule, the “number of MRSA recovered from muscle tissue” value by setting is: (3 mg/kg intraperitoneal) 2.6×10^7 cfu/g; (15 mg/kg intraperitoneal) 1.8×10^7 cfu/g.
